ChEMBL document CHEMBL1144829, “2-Arylbenzoxazoles as novel cholesteryl ester transfer protein inhibitors: optimization via array synthesis” (Bioorg Med Chem Lett, 2008)

Experiments:
[1] = target: T1, Cholesteryl ester transfer protein (Homo sapiens, UniProt P11597); assay: Inhibition of human CETP by scintillation proximity assay
T1 sequence (P11597 whole entry): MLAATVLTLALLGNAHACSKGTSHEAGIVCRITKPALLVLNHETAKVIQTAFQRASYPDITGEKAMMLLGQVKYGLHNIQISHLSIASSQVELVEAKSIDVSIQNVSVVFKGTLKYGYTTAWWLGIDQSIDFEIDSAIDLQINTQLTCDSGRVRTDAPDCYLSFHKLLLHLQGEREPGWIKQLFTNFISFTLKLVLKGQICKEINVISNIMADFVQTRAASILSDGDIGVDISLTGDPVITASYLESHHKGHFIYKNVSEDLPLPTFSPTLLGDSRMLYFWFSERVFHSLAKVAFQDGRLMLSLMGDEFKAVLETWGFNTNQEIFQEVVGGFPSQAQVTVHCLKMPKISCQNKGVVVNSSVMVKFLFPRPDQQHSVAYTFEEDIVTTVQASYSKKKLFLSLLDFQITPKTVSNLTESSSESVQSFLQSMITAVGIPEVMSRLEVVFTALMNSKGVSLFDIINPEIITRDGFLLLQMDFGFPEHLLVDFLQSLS

[2] = target: T1, Cholesteryl ester transfer protein; assay: Inhibition of CETP in human whole plasma

Row | IC50 [1] [µM] | IC50 [2] [µM] | Structure (SMILES)
1 | 3.3 | – | Cc1cc(C)c2oc(-c3ccc(NC(=O)COc4ccccc4-c4ccccc4)cc3)nc2c1
2 | 0.085 | 3.5 | Cc1cc(C)c2oc(-c3ccc(NC(=O)COc4ccc(C)c5c4CCC5)cc3)nc2c1
3 | 0.031 | 3.2 | Cc1cc(C)c2oc(-c3ccc(NC(=O)COc4ccc(Br)cc4C)cc3)nc2c1
4 | > 10 | – | Cc1cc(C)cc(OCC(=O)Nc2ccc(-c3nc4cc(C)cc(C)c4o3)cc2)c1
5 | > 32 | – | COC(=O)c1ccc2nc(-c3ccc(NC(=O)COc4ccccc4C)cc3)oc2c1
6 | > 32 | – | Cc1ccccc1OCC(=O)Nc1ccc(-c2nc3ccc(Cl)cc3o2)cc1
7 | > 10 | – | Cc1ccc(C)c(OCC(=O)Nc2ccc(-c3nc4cc(C)cc(C)c4o3)cc2)c1
8 | 2.3 | – | Cc1cc(C)c2oc(-c3ccc(NC(=O)COc4cccc(-c5ccccc5)c4)cc3)nc2c1
9 | 0.023 | 4.9 | Cc1cc(C)c2oc(-c3ccc(NC(=O)COc4ccc(F)cc4C)cc3)nc2c1
10 | 0.018 | 1.3 | COC(=O)c1c(Cl)ccc(OCC(=O)Nc2ccc(-c3nc4cc(C#N)ccc4o3)cc2)c1C
11 | 0.38 | 20 | Cc1cc(C)c2oc(-c3ccc(NC(=O)COc4ccc(Cl)cc4)cc3)nc2c1
12 | 0.052 | 2.5 | Cc1ccccc1OCC(=O)Nc1ccc(-c2nc3cc(C#N)cc(Cl)c3o2)cc1
13 | 0.69 | 18 | Cc1cccc(OCC(=O)Nc2ccc(-c3nc4cc(C)cc(C)c4o3)cc2)c1
14 | 0.14 | 4.5 | Cc1ccc(OCC(=O)Nc2ccc(-c3nc4cc(C)cc(C)c4o3)cc2)c(C)c1
15 | 0.042 | 2.8 | COC(=O)c1c(Cl)ccc(OCC(=O)Nc2ccc(-c3nc4cc(C)cc(C)c4o3)cc2)c1C
16 | 0.04 | 1.7 | Cc1cc(C)c2oc(-c3ccc(NC(=O)COc4ccc(Cl)c(C)c4C)cc3)nc2c1
17 | 0.049 | 18 | Cc1ccccc1OCC(=O)Nc1ccc(-c2nc3cc(Cl)cc([N+](=O)[O-])c3o2)cc1
18 | 1.9 | 91 | Cc1cc(C)c2oc(-c3ccc(NC(=O)COc4ccccc4C(F)(F)F)cc3)nc2c1
19 | 1.1 | 31 | Cc1ccc2oc(-c3ccc(NC(=O)COc4ccccc4C)cc3)nc2c1
20 | > 10 | – | COc1cccc(OCC(=O)Nc2ccc(-c3nc4cc(C)cc(C)c4o3)cc2)c1
21 | > 10 | – | Cc1cc(C)c2oc(-c3ccc(NC(=O)COc4ccc(C(F)(F)F)cc4)cc3)nc2c1

Row | IC50 [1] [µM] | IC50 [2] [µM] | Structure (SMILES)
22 | > 32 | – | COc1ccc2nc(-c3ccc(NC(=O)COc4ccccc4C)cc3)oc2c1
23 | > 32 | – | Cc1ccccc1OCC(=O)Nc1ccc(-c2nc3cc(C(=O)O)ccc3o2)cc1
24 | > 10 | – | COc1ccc(OCC(=O)Nc2ccc(-c3nc4cc(C)cc(C)c4o3)cc2)cc1
25 | 0.085 | 40 | Cc1cc(Cl)ccc1OCC(=O)Nc1ccc(-c2nc3cc(C#N)ccc3o2)cc1
26 | > 32 | – | Cc1ccccc1OCC(=O)Nc1ccc(-c2nc3ccc([N+](=O)[O-])cc3o2)cc1
27 | 1.2 | 18 | CC(=O)c1ccc2oc(-c3ccc(NC(=O)COc4ccccc4C)cc3)nc2c1
28 | 0.2 | 13 | Cc1cc(C)c2oc(-c3ccc(NC(=O)COc4ccc(Cl)c(Cl)c4)cc3)nc2c1
29 | 0.59 | 51 | Cc1ccccc1OCC(=O)Nc1ccc(-c2nc3cc(C(F)(F)F)ccc3o2)cc1
30 | 0.096 | 2.7 | Cc1cc(C)c2oc(-c3ccc(NC(=O)COc4ccc(Cl)cc4C)cc3)nc2c1
31 | 3.5 | 80 | COC(=O)c1cccc2nc(-c3ccc(NC(=O)COc4ccccc4C)cc3)oc12
32 | 7.3 | 31 | Cc1cc(C)c2oc(-c3ccc(NC(=O)COc4ccc(F)cc4)cc3)nc2c1
33 | 0.011 | 4.3 | Cc1cc(Br)ccc1OCC(=O)Nc1ccc(-c2nc3cc(C#N)ccc3o2)cc1
34 | 0.057 | 3.3 | Cc1ccccc1OCC(=O)Nc1ccc(-c2nc3cc(C#N)ccc3o2)cc1
35 | 9.3 | – | CCS(=O)(=O)c1ccc2oc(-c3ccc(NC(=O)COc4ccccc4C)cc3)nc2c1
36 | 11 | 71 | Cc1ccccc1OCC(=O)Nc1ccc(-c2nc3cc(OC(F)(F)F)ccc3o2)cc1
37 | > 32 | – | Cc1ccccc1OCC(=O)Nc1ccc(-c2nc3cc(F)ccc3o2)cc1
38 | > 10 | – | Cc1cc(C)c2oc(-c3ccc(NC(=O)COc4c(Cl)cccc4Cl)cc3)nc2c1
39 | > 10 | – | Cc1cc(C)c2oc(-c3ccc(NC(=O)COc4ccccc4Cl)cc3)nc2c1
40 | 8.3 | – | COc1ccccc1OCC(=O)Nc1ccc(-c2nc3cc(C)cc(C)c3o2)cc1
41 | > 10 | – | Cc1cc(C)c2oc(-c3ccc(NC(=O)COc4ccc(-c5ccccc5)cc4)cc3)nc2c1
42 | 0.44 | 28 | Cc1ccccc1OCC(=O)Nc1ccc(-c2nc3cc(Br)ccc3o2)cc1

Row | IC50 [1] [µM] | IC50 [2] [µM] | Structure (SMILES)
43 | 0.097 | 26 | Cc1ccccc1OCC(=O)Nc1ccc(-c2nc3cc(Cl)cc(Br)c3o2)cc1
44 | 0.22 | – | COC(=O)c1ccccc1OCC(=O)Nc1ccc(-c2nc3cc(C)cc(C)c3o2)cc1
45 | 1.7 | 100 | Cc1ccccc1OCC(=O)Nc1ccc(-c2nc3cccc(C)c3o2)cc1
46 | > 32 | – | Cc1ccccc1OCC(=O)Nc1ccc(-c2nc3ccc(N4CCCC4)cc3o2)cc1
47 | 0.056 | 2.5 | Cc1cc(C)c2oc(-c3ccc(NC(=O)COc4ccc(Cl)c5c4CCC5)cc3)nc2c1
48 | > 32 | – | Cc1ccccc1OCC(=O)Nc1ccc(-c2nc3c(C)cccc3o2)cc1
49 | 0.018 | 4.3 | N#Cc1ccc2oc(-c3ccc(NC(=O)COc4ccc(Cl)c(C(F)(F)F)c4)cc3)nc2c1
50 | 0.01 | 0.91 | Cc1c(Cl)ccc(OCC(=O)Nc2ccc(-c3nc4cc(C#N)ccc4o3)cc2)c1C
51 | > 10 | – | Cc1cc(C)c2oc(-c3ccc(NC(=O)COc4ccc(OC(F)(F)F)cc4)cc3)nc2c1
52 | 1.3 | 27 | Cc1ccccc1OCC(=O)Nc1ccc(-c2nc3cc(CO)ccc3o2)cc1
53 | > 10 | – | Cc1cc(C)c2oc(-c3ccc(NC(=O)COc4ccc(C#N)cc4)cc3)nc2c1
54 | 13 | – | Cc1ccc2nc(-c3ccc(NC(=O)COc4ccccc4C)cc3)oc2c1
55 | > 32 | – | Cc1ccccc1OCC(=O)Nc1ccc(-c2nc3cc(C(C)(C)C)ccc3o2)cc1
56 | > 10 | 32 | Cc1cc(C)c2oc(-c3ccc(NC(=O)COc4cccc(C(F)(F)F)c4)cc3)nc2c1
57 | > 32 | – | Cc1ccccc1OCC(=O)Nc1ccc(-c2nc3cccc(C(=O)O)c3o2)cc1
58 | > 10 | – | Cc1cc(C)c2oc(-c3ccc(NC(=O)COc4c(C)cccc4Cl)cc3)nc2c1
59 | > 10 | – | Cc1cc(C)c2oc(-c3ccc(NC(=O)COc4cccc(C#N)c4)cc3)nc2c1
60 | 0.28 | 8.9 | Cc1cc(C)c2oc(-c3ccc(NC(=O)COc4ccccc4C)cc3)nc2c1
61 | > 32 | – | Cc1ccccc1OCC(=O)Nc1ccc(-c2nc3ccc(F)cc3o2)cc1
62 | 0.2 | – | Cc1cc(C)c2oc(-c3ccc(NC(=O)COc4ccccc4OC(F)(F)F)cc3)nc2c1
63 | 0.088 | 11 | Cc1ccccc1OCC(=O)Nc1ccc(-c2nc3cc(Cl)cc(Cl)c3o2)cc1

Row | IC50 [1] [µM] | IC50 [2] [µM] | Structure (SMILES)
64 | 0.092 | 9.1 | Cc1ccccc1OCC(=O)Nc1ccc(-c2nc3cc(C(F)(F)F)cc(C(F)(F)F)c3o2)cc1
65 | 0.015 | 3.2 | N#Cc1ccc2oc(-c3ccc(NC(=O)COc4ccc(Cl)c5c4CCC5)cc3)nc2c1
66 | 3.6 | 61 | Cc1cc(C)c2oc(-c3ccc(NC(=O)COc4cccc(OC(F)(F)F)c4)cc3)nc2c1
67 | 0.24 | 26 | Cc1ccc(OCC(=O)Nc2ccc(-c3nc4cc(C)cc(C)c4o3)cc2)cc1
68 | 0.12 | 18 | Cc1ccccc1OCC(=O)Nc1ccc(-c2nc3cc([N+](=O)[O-])ccc3o2)cc1
69 | > 10 | – | Cc1cc(C)c2oc(-c3ccc(NC(=O)COc4cc(Cl)ccc4Cl)cc3)nc2c1
70 | 0.24 | 27 | CC(=O)c1cc(C)cc2nc(-c3ccc(NC(=O)COc4ccccc4C)cc3)oc12
71 | > 10 | – | Cc1cc(C)c2oc(-c3ccc(NC(=O)COc4ccccc4C(C)C)cc3)nc2c1
72 | > 32 | – | COC(=O)c1ccc2oc(-c3ccc(NC(=O)COc4ccccc4C)cc3)nc2c1
73 | 0.47 | 21 | Cc1ccccc1OCC(=O)Nc1ccc(-c2nc3cc(Cl)ccc3o2)cc1
74 | 1.9 | – | Cc1ccccc1OCC(=O)Nc1ccc(-c2nc3cc(-c4ccccc4)ccc3o2)cc1
75 | > 10 | – | Cc1cc(C)c2oc(-c3ccc(NC(=O)COc4ccccc4F)cc3)nc2c1
76 | > 10 | – | Cc1cc(C)c2oc(-c3ccc(NC(=O)COc4ccccc4C#N)cc3)nc2c1
77 | 0.12 | 4.9 | Cc1cc(C)c2oc(-c3ccc(NC(=O)COc4ccc(Cl)c(C(F)(F)F)c4)cc3)nc2c1
78 | > 10 | – | COC(=O)c1cccc(OCC(=O)Nc2ccc(-c3nc4cc(C)cc(C)c4o3)cc2)c1
79 | > 32 | – | COc1ccc2oc(-c3ccc(NC(=O)COc4ccccc4C)cc3)nc2c1
80 | 1.3 | 11 | Cc1cc(C)c2oc(-c3ccc(NC(=O)COc4cccc(Cl)c4)cc3)nc2c1
81 | 1.1 | 51 | Cc1cc(C)c2oc(-c3ccc(NC(=O)COc4cccc(F)c4)cc3)nc2c1
82 | > 32 | – | Cc1ccccc1OCC(=O)Nc1ccc(-c2nc3c([N+](=O)[O-])cccc3o2)cc1
83 | 0.9 | 67 | Cc1cc(C)c2oc(-c3ccc(NC(=O)COc4cccc(C(C)C)c4)cc3)nc2c1
